Measurements as given in the kinase profiling compilation of Christmann-Franck et al. (2016).

Assays:
Conditions in all cases: compound 10.0 µM
[1] = biological target: CAMK2A or CAMK2B or CAMK2D or CAMK2G (human) (UniProt Q13555+Q13557+Q9UQM7+Q13554)
MAPKAPK5 (human) = MAPKAPK5 (human) (UniProt Q8IW41)
PRKG1 (human) = PRKG1 (human) (UniProt Q13976)
RPS6KB1 (human) = RPS6KB1 (human) (UniProt P23443)
ABL1 (human) = ABL1 (human) (UniProt P00519)
AKT1 (human) = AKT1 (human) (UniProt P31749)
CAMK4 (human) = CAMK4 (human) (UniProt Q16566)
CAMK4 (human), sequence (Q16566 whole entry, looked up): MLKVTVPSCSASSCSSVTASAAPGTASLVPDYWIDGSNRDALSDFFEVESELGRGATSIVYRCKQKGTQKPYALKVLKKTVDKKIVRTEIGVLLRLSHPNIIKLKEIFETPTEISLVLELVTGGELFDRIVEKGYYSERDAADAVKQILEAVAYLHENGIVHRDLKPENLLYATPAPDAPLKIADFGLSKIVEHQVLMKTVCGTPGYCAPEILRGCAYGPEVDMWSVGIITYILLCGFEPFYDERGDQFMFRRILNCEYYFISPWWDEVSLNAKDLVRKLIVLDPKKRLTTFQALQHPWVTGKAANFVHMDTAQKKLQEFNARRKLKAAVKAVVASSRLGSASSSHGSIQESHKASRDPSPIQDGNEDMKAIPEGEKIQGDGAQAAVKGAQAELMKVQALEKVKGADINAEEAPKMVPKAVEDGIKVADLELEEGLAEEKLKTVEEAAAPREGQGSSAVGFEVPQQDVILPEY

DYRK1A (human) = DYRK1A (human) (UniProt Q13627)
FGFR1 (human) = FGFR1 (human) (UniProt P11362)
IGF1R (human) = IGF1R (human) (UniProt P08069)
KDR (human) = KDR (human) (UniProt P35968)
MAP3K7 (human) = MAP3K7 (human) (UniProt O43318)
MAP3K7 (human), sequence (O43318 whole entry, looked up): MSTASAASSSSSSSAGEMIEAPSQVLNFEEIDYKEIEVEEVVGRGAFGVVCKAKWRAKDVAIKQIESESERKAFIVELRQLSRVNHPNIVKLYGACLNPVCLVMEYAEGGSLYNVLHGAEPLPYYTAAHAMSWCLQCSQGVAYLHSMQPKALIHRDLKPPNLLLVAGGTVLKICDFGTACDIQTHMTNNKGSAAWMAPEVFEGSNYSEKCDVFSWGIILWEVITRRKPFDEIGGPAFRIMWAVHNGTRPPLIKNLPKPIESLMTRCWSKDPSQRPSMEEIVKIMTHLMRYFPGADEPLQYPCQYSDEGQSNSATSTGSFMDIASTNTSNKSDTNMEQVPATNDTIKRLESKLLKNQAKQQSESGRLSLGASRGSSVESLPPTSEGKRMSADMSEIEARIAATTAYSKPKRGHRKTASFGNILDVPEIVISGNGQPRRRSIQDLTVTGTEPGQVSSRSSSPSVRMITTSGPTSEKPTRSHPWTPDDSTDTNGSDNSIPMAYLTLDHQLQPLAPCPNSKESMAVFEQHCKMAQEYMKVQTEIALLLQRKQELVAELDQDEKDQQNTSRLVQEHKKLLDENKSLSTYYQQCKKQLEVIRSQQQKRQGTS

MAP4K4 (human) = MAP4K4 (human) (UniProt O95819)
MARK1 (human) = MARK1 (human) (UniProt Q9P0L2)
MET (human) = MET (human) (UniProt P08581)
PIM2 (human) = PIM2 (human) (UniProt Q9P1W9)
PIM2 (human), sequence (Q9P1W9 whole entry, looked up): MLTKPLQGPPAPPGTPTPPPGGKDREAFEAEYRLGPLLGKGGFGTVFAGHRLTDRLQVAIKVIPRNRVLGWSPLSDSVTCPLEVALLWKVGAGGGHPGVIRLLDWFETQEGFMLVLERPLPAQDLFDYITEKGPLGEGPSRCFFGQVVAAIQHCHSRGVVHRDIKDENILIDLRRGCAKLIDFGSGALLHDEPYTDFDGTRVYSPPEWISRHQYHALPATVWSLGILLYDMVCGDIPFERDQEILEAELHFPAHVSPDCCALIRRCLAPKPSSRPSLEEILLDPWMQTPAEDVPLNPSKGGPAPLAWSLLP

SGK1 (human) = SGK1 (human) (UniProt O00141)
CHEK1 (human) = CHEK1 (human) (UniProt O14757)
INSR (human) = INSR (human) (UniProt P06213)
PAK2 (human) = PAK2 (human) (UniProt Q13177)

CAMK2A or CAMK2B or CAMK2D or CAMK2G (human), sequence (Q13554 whole entry, looked up): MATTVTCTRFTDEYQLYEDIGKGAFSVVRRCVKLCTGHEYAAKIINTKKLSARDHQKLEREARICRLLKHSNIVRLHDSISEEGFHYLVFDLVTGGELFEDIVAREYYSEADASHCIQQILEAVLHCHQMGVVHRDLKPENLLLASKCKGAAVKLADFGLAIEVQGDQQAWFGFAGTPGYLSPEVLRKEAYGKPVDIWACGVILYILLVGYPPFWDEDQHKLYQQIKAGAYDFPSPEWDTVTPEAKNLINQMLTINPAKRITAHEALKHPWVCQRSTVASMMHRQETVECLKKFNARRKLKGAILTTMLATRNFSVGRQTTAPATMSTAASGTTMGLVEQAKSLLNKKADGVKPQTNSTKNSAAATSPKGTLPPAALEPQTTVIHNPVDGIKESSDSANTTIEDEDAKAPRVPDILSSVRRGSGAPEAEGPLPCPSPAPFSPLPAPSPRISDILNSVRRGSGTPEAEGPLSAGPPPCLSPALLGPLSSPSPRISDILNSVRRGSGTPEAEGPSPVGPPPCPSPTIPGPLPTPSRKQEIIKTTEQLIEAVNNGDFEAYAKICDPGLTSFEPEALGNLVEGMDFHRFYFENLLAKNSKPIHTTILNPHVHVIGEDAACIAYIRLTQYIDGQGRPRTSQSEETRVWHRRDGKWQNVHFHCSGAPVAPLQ
CAMK2A or CAMK2B or CAMK2D or CAMK2G (human), sequence (Q13555 whole entry, looked up): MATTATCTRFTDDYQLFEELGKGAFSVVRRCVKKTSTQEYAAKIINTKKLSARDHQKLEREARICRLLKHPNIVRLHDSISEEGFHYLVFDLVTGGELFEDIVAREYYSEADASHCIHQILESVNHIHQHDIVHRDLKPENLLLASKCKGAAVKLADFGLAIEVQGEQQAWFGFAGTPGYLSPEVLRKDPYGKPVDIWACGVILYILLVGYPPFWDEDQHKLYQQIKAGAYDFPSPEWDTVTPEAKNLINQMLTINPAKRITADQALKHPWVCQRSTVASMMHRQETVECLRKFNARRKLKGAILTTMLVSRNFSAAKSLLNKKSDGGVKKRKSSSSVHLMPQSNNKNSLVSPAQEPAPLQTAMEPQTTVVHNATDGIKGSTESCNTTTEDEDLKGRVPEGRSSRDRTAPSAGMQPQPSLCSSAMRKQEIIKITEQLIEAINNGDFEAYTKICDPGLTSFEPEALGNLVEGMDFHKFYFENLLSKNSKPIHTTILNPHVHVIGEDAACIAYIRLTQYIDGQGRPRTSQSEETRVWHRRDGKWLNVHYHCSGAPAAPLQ
CAMK2A or CAMK2B or CAMK2D or CAMK2G (human), sequence (Q13557 whole entry, looked up): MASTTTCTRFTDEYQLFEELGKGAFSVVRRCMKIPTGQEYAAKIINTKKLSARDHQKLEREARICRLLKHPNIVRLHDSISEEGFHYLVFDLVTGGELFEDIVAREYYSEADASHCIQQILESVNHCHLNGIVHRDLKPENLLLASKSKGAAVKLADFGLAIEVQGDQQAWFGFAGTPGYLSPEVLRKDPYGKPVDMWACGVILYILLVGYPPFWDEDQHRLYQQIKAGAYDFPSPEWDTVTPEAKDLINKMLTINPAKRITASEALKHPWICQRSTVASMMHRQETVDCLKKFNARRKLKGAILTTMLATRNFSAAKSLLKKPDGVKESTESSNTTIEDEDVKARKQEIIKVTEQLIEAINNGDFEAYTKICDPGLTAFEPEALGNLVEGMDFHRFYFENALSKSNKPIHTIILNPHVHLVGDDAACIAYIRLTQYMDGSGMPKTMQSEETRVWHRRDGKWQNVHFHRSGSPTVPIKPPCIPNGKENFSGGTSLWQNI
CAMK2A or CAMK2B or CAMK2D or CAMK2G (human), sequence (Q9UQM7 whole entry, looked up): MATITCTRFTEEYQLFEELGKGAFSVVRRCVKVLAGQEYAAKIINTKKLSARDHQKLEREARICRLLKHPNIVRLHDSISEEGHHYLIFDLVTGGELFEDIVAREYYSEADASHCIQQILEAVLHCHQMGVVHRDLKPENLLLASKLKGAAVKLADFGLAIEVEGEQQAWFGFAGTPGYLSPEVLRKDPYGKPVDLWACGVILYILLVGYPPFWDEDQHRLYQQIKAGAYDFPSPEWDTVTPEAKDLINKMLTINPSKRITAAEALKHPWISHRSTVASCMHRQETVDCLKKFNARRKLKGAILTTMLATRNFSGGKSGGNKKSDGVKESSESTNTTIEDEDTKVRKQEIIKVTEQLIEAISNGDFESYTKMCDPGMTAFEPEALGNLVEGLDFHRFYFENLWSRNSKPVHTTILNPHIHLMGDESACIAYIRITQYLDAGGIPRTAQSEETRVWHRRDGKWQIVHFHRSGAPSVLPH
RPS6KB1 (human), sequence (P23443 whole entry, looked up): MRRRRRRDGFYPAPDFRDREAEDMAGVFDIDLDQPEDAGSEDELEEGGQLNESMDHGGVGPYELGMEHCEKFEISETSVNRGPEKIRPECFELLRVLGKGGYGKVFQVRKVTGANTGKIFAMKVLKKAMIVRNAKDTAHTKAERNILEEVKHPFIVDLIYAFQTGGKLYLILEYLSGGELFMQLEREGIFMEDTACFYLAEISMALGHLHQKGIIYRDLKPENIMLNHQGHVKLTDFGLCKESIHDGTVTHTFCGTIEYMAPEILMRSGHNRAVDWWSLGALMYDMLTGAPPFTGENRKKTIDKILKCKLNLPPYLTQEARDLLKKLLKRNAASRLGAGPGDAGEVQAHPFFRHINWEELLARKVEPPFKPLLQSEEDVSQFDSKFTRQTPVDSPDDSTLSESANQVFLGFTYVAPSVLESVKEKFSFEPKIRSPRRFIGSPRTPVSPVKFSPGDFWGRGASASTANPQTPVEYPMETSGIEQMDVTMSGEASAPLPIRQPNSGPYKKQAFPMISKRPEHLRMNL
PRKG1 (human), sequence (Q13976 whole entry, looked up): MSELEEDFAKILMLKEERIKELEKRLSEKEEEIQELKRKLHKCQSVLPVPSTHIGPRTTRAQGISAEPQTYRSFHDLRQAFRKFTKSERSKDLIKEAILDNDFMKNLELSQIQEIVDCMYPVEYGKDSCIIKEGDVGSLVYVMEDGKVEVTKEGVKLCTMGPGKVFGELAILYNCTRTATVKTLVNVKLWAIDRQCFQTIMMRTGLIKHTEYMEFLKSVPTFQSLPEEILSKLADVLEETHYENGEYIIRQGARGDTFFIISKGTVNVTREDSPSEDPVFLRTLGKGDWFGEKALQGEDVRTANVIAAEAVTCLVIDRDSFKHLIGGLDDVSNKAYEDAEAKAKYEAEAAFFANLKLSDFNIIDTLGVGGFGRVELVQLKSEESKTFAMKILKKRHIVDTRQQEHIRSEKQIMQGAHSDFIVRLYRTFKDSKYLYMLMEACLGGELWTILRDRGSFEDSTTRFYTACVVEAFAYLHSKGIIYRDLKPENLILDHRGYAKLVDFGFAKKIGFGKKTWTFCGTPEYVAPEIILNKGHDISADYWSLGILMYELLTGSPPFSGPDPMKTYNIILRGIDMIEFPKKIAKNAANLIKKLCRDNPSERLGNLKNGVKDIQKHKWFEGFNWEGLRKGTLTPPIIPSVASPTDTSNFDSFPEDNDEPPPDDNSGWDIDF

SMILES	inhibition [1]	inhibition (PRKG1 (human))	inhibition (RPS6KB1 (human))	inhibition (CAMK4 (human))	inhibition (IGF1R (human))	inhibition (MAP3K7 (human))	inhibition (PIM2 (human))	other results
C[C@@H](NC(=O)c1c[nH]c2ncc(-c3ncn4cc(F)cc(F)c34)nc12)C(=O)N1CC(C#N)C1	-51%	0%	-42%					inhibition (MAPKAPK5 (human)): -12%
C[C@@H](NC(=O)c1c[nH]c2ncc(-c3nn(C)c4cc(Cl)cc(F)c34)nc12)C(=O)N1CC(C#N)C1	-52%		-33%	-24%	-30%	-11%		inhibition (CHEK1 (human)): -28%
C[C@@H](NC(=O)c1c[nH]c2ncc(-c3cn(C)c4cc(Cl)ccc34)nc12)C(=O)N1CC(C#N)C1	-53%		-14%				-18%	

Second part, led by results:

inhibition [1]	inhibition (PRKG1 (human))	inhibition (RPS6KB1 (human))	inhibition (CAMK4 (human))	inhibition (IGF1R (human))	inhibition (MAP3K7 (human))	inhibition (PIM2 (human))	SMILES	other results
-179%	0%	-12%	-11%	-12%	-24%	-15%	C[C@@H](NC(=O)c1c[nH]c2ncc(-c3nn(C)c4cc(Cl)ccc34)nc12)C(=O)N1CC(C#N)C1	inhibition (ABL1 (human)): -13%; inhibition (AKT1 (human)): -11%; inhibition (DYRK1A (human)): -13%; inhibition (FGFR1 (human)): -11%; inhibition (KDR (human)): -18%; inhibition (MAP4K4 (human)): -17%; inhibition (MARK1 (human)): -11%; inhibition (MET (human)): -15%; inhibition (SGK1 (human)): -17%
-35%		-12%					CC[C@@H](NC(=O)c1c[nH]c2ncc(-c3nn(C)c4cc(Cl)ccc34)nc12)C(=O)N1CC(C#N)C1	inhibition (INSR (human)): -11%; inhibition (PAK2 (human)): -29%
